Results on 22 molecules are retold here after US10775394B2, “Immunoassay for phenethylamines of the 2C and DO sub-families” (Randox Laboratories Limited, priority 2013, dated 2020).

The test system of experiment [1] is Randox MDPV kit. Particulars: compared to 100% for (±)-MDPV, Swortwood et al 2013, Table 7; cited from earlier work.
In experiment [2] the test system is Randox mephedrone/methcathinone kit. Particulars: compared to 100% for (±)-mephedrone, Swortwood et al 2013, Table 7; cited from earlier work.
Experiment [3] deals with DO antibody 1 (IgG fraction of antiserum raised to DOB-BSA). The experiment can be described thus: Competitive microtitre plate ELISA, DO antibody 1 (antiserum raised to DOB-BSA). To be noted: for % Cross-Reactivity: DO antibody 1, relative to DOB = 100%, calibration curves 0-40 ng/ml. In kind it is binding. As for the experimental part: The appropriate antibody coating dilution was determined using standard ELISA checkerboard techniques. The plate was incubated for 2 hours at 37° C., washed 4 times over 10 minutes with Tris buffered saline containing Tween 20 (TBST) and tapped dry. […] The appropriate dilution of conjugate was also determined using standard ELISA checkerboard techniques. The plate was incubated at 25° C. for 1 hour. Excess unbound conjugate was removed by washing 6 times over a 10-15 minute period with TBST and tapped dry. 125 μl of tetramethylbenzidine (TMB) substrate solution was added to each well of the plate that was then incubated for 20 minutes in the dark at room temperature. The reaction was terminated by addition of 125 μl 0.2 M H2SO4 to each well. The absorbance was measured at 450 nm using a microtitre plate reader.

In experiment [4] the test system is CEDIA amphetamine/ecstasy immunoassay. To be noted: CEDIA assay; tested at 5,000 ng/ml; Petrie et al 2013; cited from earlier work.
For experiment [5], the system named is DO antibody 2 (IgG fraction of antiserum raised to DOB-BSA). Put plainly: Competitive microtitre plate ELISA, DO antibody 2 (antiserum raised to DOB-BSA). It counts as binding. To be noted: for % Cross reactivity: DO antibody 2, relative to DOB = 100. As for the experimental part:
The wells of an enhanced binding 96 well polystyrene microtitre plate were coated with IgG fraction of antiserum raised to DOB-BSA, diluted in 10 mM Tris, pH8.5 (125 μl/well). The appropriate antibody coating dilution was determined using standard ELISA checkerboard techniques. The plate was incubated for 2 hours at 37° C., washed 4 times over 10 minutes with Tris buffered saline containing Tween 20 (TBST) and tapped dry. Standard solutions of DOB were prepared in TBST at 0, 0.625, 1.25, 2.5, 5, 10, 20 & 40 ng/ml, and 50 μl of each was added to the appropriate wells. 75 μl of conjugate (Example 22) diluted in Tris buffer (pH 7.2) containing EDTA, D-mannitol, sucrose, thimerosal and BSA, was added to each of the wells. The appropriate dilution of conjugate was also determined using standard ELISA checkerboard techniques. The plate was incubated at 25° C. for 1 hour. Excess unbound conjugate was removed by washing 6 times over a 10-15 minute period with TBST and tapped dry. 125 μl of tetramethylbenzidine (TMB) substrate solution was added to each well of the plate that was then incubated for 20 minutes in the dark at room temperature. The reaction was terminated by addition of 125 μl 0.2 M H2SO4 to each well. The absorbance was measured at 450 nm using a microtitre plate reader. In order to determine the specificity of the competitive ELISAs, standard solutions of a range of structurally similar compounds were prepared in TBST. Using calibration curves generated from these compounds (0-40 ng/ml), the cross-reactivity was determined.
In general terms: ELISA stands for enzyme-linked immunosorbent assay.

Experiment [6] has as its system AxSYM amphetamine/methamphetamine II assay. Particulars: even when tested at 5,000 ng/mL, Petrie et al 2013; cited from earlier work.
The test system of experiment [7] is EMIT II Plus amphetamines assay. To be noted: tested at 5,000 ng/ml, Petrie et al 2013; cited from earlier work.
For experiment [8], the system named is 2C antibody (IgG fraction of antiserum raised to 2C-B-BSA). The experiment can be described thus: Competitive microtitre plate ELISA, 2C antibody (antiserum raised to 2C-B-BSA). In kind it is binding. To be noted: for % Cross-Reactivity / IC50 (standard concentration which produces 50% inhibition of maximal signal): 2C antibody; for % Cross-Reactivity: relative to 2C-B = 100%, calibration curves 0-80 ng/ml; for IC50 (standard concentration which produces 50% inhibition of maximal signal): 2C-B standard, competitive ELISA. As to the method: The wells of an enhanced binding 96 well polystyrene microtitre plate were coated with IgG fraction of antiserum raised to 2C-B-BSA, diluted in 10 mM Tris, pH8.5 (125 μl/well). The appropriate antibody coating dilution was determined using standard ELISA checkerboard techniques. The plate was incubated overnight at 4° C., washed 4 times over 10 minutes with Tris buffered saline containing Tween 20 (TBST) and tapped dry. Standard solutions of 2CB were prepared in TBST at 0, 1.25, 2.5, 5, 10, 20, 40 & 80 ng/ml, and 50 μl of each was added to the appropriate wells. 75 μl of conjugate (Example 11) diluted in Tris buffer (pH 7.2) containing EDTA, D-mannitol, sucrose, thimerosal and BSA, was added to each of the wells. The appropriate dilution of conjugate was also determined using standard ELISA checkerboard techniques. The plate was incubated at 25° C. for 1 hour. Excess unbound conjugate was removed by washing 6 times over a 10-15 minute period with TBST and tapped dry. 125 μl of tetramethylbenzidine (TMB) substrate solution was added to each well of the plate that was then incubated for 20 minutes in the dark at room temperature. The reaction was terminated by addition of 125 μl 0.2 M H2SO4 to each well. The absorbance was measured at 450 nm using a microtitre plate reader. In order to determine the specificity of the competitive ELISAs, standard solutions of a range of structurally similar compounds were prepared in TBST. Using calibration curves generated from these compounds (0-80 ng/ml) percentage cross-reactivity was determined.

Counter-ions that a name gives are not always drawn.

Take `CCCC(C(=O)c1ccc2c(c1)OCO2)N1CCCC1` (racemic) [(±)-MDPV]: in experiment [1], the cross-reactivity was 100%.

For the molecule `CNC(C)C(=O)c1ccc(C)cc1` (racemic) [(±)-mephedrone, mephedrone], in experiment [2], the cross-reactivity is reported as 100%.

For `COc1cc(CC(C)N)c(OC)cc1Br` (racemic) [DOB, 1-(4-bromo-2,5-dimethoxyphenyl)propan-2-amine], the “% Cross-Reactivity” value in experiment [3] is listed as 100.0%; in experiment [8] it was less than 1.0%. The “% B/Bo” value is 64.5% in experiment [3] (DOB 0.625 ng/ml); 58.1% in experiment [3] (DOB 1.25 ng/ml); 46.3% in experiment [3] (DOB 2.5 ng/ml); 34.6% in experiment [3] (DOB 5 ng/ml); 27.5% in experiment [3] (DOB 10 ng/ml); 17.5% in experiment [3] (DOB 20 ng/ml). Also, the “% B/Bo” value in experiment [3] (DOB 40 ng/ml) came out at 11.5%. Moreover, the cross-reactivity is listed as 8.5% in experiment [4], “does not show cross-reactivity” in experiment [6] and 39.1% in experiment [7]. Further, in experiment [5] (DO antibody 2, competitive ELISA), the IC50 result was “IC50 - 0.437 ng/mL”. In addition, the “% Cross reactivity” value in experiment [5] was 100%.

Take `COc1cc(CC(C)N)c(OC)cc1C` (racemic) [DOM, 1-(2,5-dimethoxy-4-methylphenyl)propan-2-amine]: in experiment [3], the “% Cross-Reactivity” value came out at 112.7%. Further, the figures for the cross-reactivity in experiment [4], in experiment [6] and in experiment [7] were 3.9%, “does not show cross-reactivity” and 23.2%, respectively. In addition, in experiment [5], the “% Cross reactivity” value is listed as 49%.

As to `NCCc1ccccc1` [(+)-Phenethylamine], the “% Cross-Reactivity” value in experiment [3] and in experiment [8] was less than 1.0% throughout. Moreover, the “binding of the antibody described in Table 2” value in experiment [3] (summary in words) was “not”. Further, the “binding of the antibody described in Table 4” value in experiment [8] (summary in words) is given as “not”.

For the molecule `CC(N)Cc1ccccc1` (centres unmarked) [Amphetamine], in experiment [3], the “% Cross-Reactivity” value is recorded as less than 1.0%.

Turning to `CC(N)Cc1c2ccoc2c(Br)c2ccoc12` (centres unmarked) [Bromo DragonFly (HCl), 1-(4-Bromofuro[2,3-f][1]benzofuran-8-yl)propan-2-amine], in experiment [5], the “% Cross reactivity” value was 96%.

In the case of `COc1cc(CC(C)N)c(OC)cc1Cl` (centres unmarked) [DOC, 4-chloro-2,5dimethoxyamphetamine], the “% Cross reactivity” value in experiment [5] was 47%.

On to `CCc1cc(OC)c(CC(C)N)cc1OC` (centres unmarked) [DOET], for which the figures for the cross-reactivity in experiment [4], in experiment [6] and in experiment [7] were 4.8%, “does not show cross-reactivity” and 18.8%, respectively. In experiment [5], the “% Cross reactivity” value worked out at 50%.

Consider `COc1cc(CC(C)N)c(OC)cc1I.Cl` (centres unmarked) [DOI HCl], for which, in experiment [5], the “% Cross reactivity” value stood at 73%.

As for `COc1cc([N+](=O)[O-])c(OC)cc1CC(C)N` (centres unmarked) [DON, 1-(2,5-dimethoxy-4-nitrophenyl)propan-2-amine], the “% Cross-Reactivity” value in experiment [3] is recorded as 43.1%. Besides, the “% Cross reactivity” value in experiment [5] is 57%.

On to `COc1cc(CCN)c(OC)cc1Br` [Hapten 2C-B, 1-(4-bromo-2,5-dimethoxyphenyl)ethan-2-amine], for which the figures for the “% Cross-Reactivity” value in experiment [3] and in experiment [8] were less than 1.0% and 100.0%, respectively. In addition, the cross-reactivity is given as 3.0% in experiment [4], “does not show cross-reactivity” in experiment [6] and 36.0% in experiment [7]. Further, the “% B/Bo” value was 86.8% in experiment [8] (2C-B 1.25 ng/ml); 79.2% in experiment [8] (2C-B 2.5 ng/ml); 69.2% in experiment [8] (2C-B 5 ng/ml); 59.5% in experiment [8] (2C-B 10 ng/ml); 53.5% in experiment [8] (2C-B 20 ng/ml); 44.6% in experiment [8] (2C-B 40 ng/ml). Moreover, in experiment [8] (2C-B 80 ng/ml), the “% B/Bo” value is given as 38.1%. Moreover, the “IC50 (standard concentration which produces 50% inhibition of maximal signal)” value is 0.024618 µg/mL in experiment [8] and “is 24.6 ng/ml)” in experiment [8] (listed as 2CB).

As to `COc1cc(CCN)c(OC)cc1Cl` [Hapten 2C-C, 1-(4-chloro-2,5-dimethoxyphenyl)ethan-2-amine], the “% Cross-Reactivity” value is less than 1.0% in experiment [3] and 148.6% in experiment [8].

Take `COc1cc(CCN)c(OC)cc1C#N` [Hapten 2C-CN, 1-(4-cyano-2,5-dimethoxyphenyl)ethan-2-amine]: the “% Cross-Reactivity” value is less than 1.0% in experiment [3] and 66.8% in experiment [8].

As to `COc1cc(CCN)c(OC)cc1C` [Hapten 2C-D, 1-(2,5-dimethoxy4-methylphenyl)ethan-2-amine], the results for the “% Cross-Reactivity” value in experiment [3] and in experiment [8] were less than 1.0% and 308.3%, respectively.

Regarding `CCc1cc(OC)c(CCN)cc1OC` [Hapten 2C-E, 1-(2,5-dimethoxy-4-ethylphenyl)ethan-2-amine], the “% Cross-Reactivity” value in experiment [3] is listed as less than 1.0%; in experiment [8], 178.8%.

As to `COc1ccc(OC)c(CCN)c1` [Hapten 2C-H], the cross-reactivity in experiment [4] is listed as 3.1%; in experiment [6], “does not show cross-reactivity”; in experiment [7], “none”.

As to `COc1cc(CCN)c(OC)cc1I` [Hapten 2C-I, 1-(2,5-dimethoxy-4-iodophenyl)ethan-2-amine], the cross-reactivity entry was “none” in experiment [4], “does not show cross-reactivity” in experiment [6] and 28.6% in experiment [7].

As for `CCCc1cc(OC)c(CCN)cc1OC` [Hapten 2C-P, 1-(2,5-dimethoxy-4-propylphenyl)ethan-2-amine], the “% Cross-Reactivity” value in experiment [3] is less than 1.0%; in experiment [8], 276.8%.

On to `COc1cc(SC(C)C)c(OC)cc1CCN` [Hapten 2C-T-4], for which the cross-reactivity in experiment [4] was 2.2%; in experiment [6], “does not show cross-reactivity”; in experiment [7], “none”.

For the molecule `CN[C@@H](C)Cc1ccccc1` [Methamphetamine], in experiment [3], the “% Cross-Reactivity” value is less than 1.0%.

Turning to `COc1cc(OC)c(OC)cc1CC(C)N` (centres unmarked) [TMA, 2,4,5-trimethoxyamphetamine], the “% Cross-Reactivity” value in experiment [3] amounted to 9.8%. Also, the “% Cross reactivity” value in experiment [5] was found to be 5%.
